The results in this text go back to patent US9340590B2 (priority 2011, dated 2016).

Where two headings read alike, the source gives them in different places. Positions of bridges follow the written chain, without caps; N, C: chain ends. Residues, ends and D or L forms follow the SMILES beside them.

In this experiment the target is hNav1.7 (Homo sapiens, UniProt Q15858). As to the kind of experiment: cell-based. The experiment is classed as cell-based.
Setting [1] is: IonWorks Quattro, Use, read-out: IWQ Use Nav1.7.

hNav1.7, sequence (Q15858 whole entry, looked up): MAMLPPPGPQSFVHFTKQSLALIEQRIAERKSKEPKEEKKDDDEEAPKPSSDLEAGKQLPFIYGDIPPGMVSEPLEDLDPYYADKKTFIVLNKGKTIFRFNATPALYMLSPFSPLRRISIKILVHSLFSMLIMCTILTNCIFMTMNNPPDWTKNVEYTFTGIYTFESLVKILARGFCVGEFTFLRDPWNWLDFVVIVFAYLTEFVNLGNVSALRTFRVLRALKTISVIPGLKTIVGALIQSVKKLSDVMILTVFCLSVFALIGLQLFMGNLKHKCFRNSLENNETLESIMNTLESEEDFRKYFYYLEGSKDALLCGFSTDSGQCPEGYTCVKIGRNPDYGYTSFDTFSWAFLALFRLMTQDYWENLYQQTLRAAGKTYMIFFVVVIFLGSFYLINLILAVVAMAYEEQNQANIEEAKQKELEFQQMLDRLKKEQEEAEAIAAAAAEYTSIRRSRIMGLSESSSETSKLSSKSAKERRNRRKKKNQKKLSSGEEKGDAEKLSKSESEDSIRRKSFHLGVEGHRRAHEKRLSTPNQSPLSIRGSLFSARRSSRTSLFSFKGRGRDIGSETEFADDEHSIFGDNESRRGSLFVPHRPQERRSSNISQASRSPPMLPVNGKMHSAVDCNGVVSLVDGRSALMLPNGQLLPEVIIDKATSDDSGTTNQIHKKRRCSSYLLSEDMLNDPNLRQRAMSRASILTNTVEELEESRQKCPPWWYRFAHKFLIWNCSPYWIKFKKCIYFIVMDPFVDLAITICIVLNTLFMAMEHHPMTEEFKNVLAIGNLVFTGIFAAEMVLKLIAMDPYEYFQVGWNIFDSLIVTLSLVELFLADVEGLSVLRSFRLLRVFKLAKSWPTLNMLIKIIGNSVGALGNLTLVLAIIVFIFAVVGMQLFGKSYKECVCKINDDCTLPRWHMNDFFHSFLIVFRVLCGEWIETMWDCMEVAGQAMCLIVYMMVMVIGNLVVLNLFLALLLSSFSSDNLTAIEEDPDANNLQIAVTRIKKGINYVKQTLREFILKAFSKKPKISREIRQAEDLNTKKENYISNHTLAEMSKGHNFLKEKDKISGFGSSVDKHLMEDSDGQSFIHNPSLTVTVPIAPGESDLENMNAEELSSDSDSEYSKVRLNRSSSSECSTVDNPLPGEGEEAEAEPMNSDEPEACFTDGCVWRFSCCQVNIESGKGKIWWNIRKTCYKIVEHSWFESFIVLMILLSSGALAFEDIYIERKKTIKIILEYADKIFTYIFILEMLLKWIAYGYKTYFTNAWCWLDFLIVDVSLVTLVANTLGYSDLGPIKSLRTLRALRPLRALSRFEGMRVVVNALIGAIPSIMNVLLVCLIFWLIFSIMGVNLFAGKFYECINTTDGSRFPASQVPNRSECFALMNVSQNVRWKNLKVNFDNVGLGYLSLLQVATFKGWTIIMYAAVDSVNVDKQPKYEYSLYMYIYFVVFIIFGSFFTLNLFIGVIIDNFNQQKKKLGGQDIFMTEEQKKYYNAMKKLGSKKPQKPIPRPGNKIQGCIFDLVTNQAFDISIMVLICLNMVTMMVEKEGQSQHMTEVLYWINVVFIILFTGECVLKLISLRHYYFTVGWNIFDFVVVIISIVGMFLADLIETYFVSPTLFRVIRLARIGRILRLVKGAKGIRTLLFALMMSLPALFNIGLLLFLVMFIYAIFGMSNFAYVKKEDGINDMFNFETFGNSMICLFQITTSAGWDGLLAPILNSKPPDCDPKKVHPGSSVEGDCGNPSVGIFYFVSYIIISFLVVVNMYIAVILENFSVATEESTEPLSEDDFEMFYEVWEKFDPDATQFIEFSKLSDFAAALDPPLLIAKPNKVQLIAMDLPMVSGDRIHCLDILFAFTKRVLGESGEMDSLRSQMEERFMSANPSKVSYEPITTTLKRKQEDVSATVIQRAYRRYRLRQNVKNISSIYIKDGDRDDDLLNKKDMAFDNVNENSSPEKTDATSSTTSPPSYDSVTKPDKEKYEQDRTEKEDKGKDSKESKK

With `CSCC[C@@H]1NC(=O)[C@H](Cc2ccccc2)NC(=O)CNC(=O)[C@H](CC(C)C)NC(=O)[C@@H](NC(=O)[C@@H](N)CC(=O)O)CSSC[C@@H]2NC(=O)[C@@H]3CSSC[C@@H](C(=O)N[C@@H](CCCCN)C(=O)N[C@@H](Cc4ccc(O)cc4)C(=O)N[C@H](C(=O)N[C@@H](Cc4ccccc4)C(N)=O)C(C)C)NC(=O)[C@H](Cc4c[nH]c5ccccc45)NC(=O)[C@H](CCCCN)NC(=O)[C@H](Cc4c[nH]cn4)NC(=O)[C@H]([C@@H](C)O)NC(=O)[C@H](CCCNC(=N)N)NC(=O)[C@H](CO)NC(=O)[C@H](CSSC[C@H](NC(=O)[C@H](CCCCN)NC(=O)[C@H](CCCNC(=N)N)NC1=O)C(=O)N[C@@H](C(C)C)C(=O)N1CCC[C@H]1C(=O)N[C@@H](CC(=O)O)C(=O)N[C@@H](CC(N)=O)C(=O)N[C@@H](CC(=O)O)C(=O)N[C@@H](CCCCN)C(=O)N3)NC(=O)[C@H](C(C)C)NC(=O)[C@H](CC(C)C)NC(=O)[C@H](CC(N)=O)NC(=O)[C@@H]1CCCN1C(=O)[C@H](CCCNC(=N)N)NC2=O` [compound 301] (H-DCLGFMRKCVPDNDKCCRPNLVCSRTHKWCKYVF-NH2; disulfide 2-17, 9-23, 16-30), the IC50 under setting [1] worked out at 100 nM.
Consider `CC[C@H](C)[C@@H]1NC(=O)[C@@H]2CSSC[C@@H]3NC(=O)[C@H](C(C)C)NC(=O)[C@H](CC(C)C)NC(=O)[C@H](CC(N)=O)NC(=O)[C@@H]4CCCN4C(=O)[C@H](CCCNC(=N)N)NC(=O)[C@H](CSSC[C@H](NC(=O)[C@@H](N)CC(=O)O)C(=O)N[C@@H](CC(C)C)C(=O)NCC(=O)N[C@@H](Cc4ccccc4)C(=O)N[C@@H](CCSC)C(=O)N[C@@H](CCCNC(=N)N)C(=O)N[C@@H](CCCCN)C(=O)N2)NC(=O)[C@H](CSSC[C@@H](C(=O)N[C@@H](CCCCN)C(=O)N[C@@H](Cc2ccc(O)cc2)C(=O)N[C@H](C(=O)N[C@@H](Cc2ccccc2)C(N)=O)C(C)C)NC(=O)[C@H](Cc2c[nH]c4ccccc24)NC(=O)[C@H](CCCCN)NC(=O)[C@H](Cc2c[nH]cn2)NC(=O)[C@H]([C@@H](C)O)NC(=O)[C@H](CCCNC(=N)N)NC(=O)[C@H](CO)NC3=O)NC(=O)[C@H](CCCCN)NC(=O)[C@H](CC(=O)O)NC(=O)[C@H](CC(N)=O)NC(=O)[C@H](CCCCN)NC(=O)[C@@H]2CCCN2C1=O` [compound 42] (H-DCLGFMRKCIPKNDKCCRPNLVCSRTHKWCKYVF-NH2; disulfide 2-17, 9-23, 16-30), for which the IC50 (read-out: IWQ Use Nav1.7) is 120 nM.
Take `CSCC[C@@H]1NC(=O)[C@H](Cc2ccccc2)NC(=O)CNC(=O)[C@H](CC(C)C)NC(=O)[C@@H](NC(=O)[C@@H](N)CC(=O)O)CSSC[C@@H]2NC(=O)[C@@H]3CSSC[C@@H](C(=O)N[C@@H](CCCCN)C(=O)N[C@@H](Cc4ccc(O)cc4)C(=O)N[C@H](C(=O)N[C@@H](Cc4ccccc4)C(N)=O)C(C)C)NC(=O)[C@H](Cc4c[nH]c5ccccc45)NC(=O)[C@H](CCCCN)NC(=O)[C@H](Cc4c[nH]cn4)NC(=O)[C@H]([C@@H](C)O)NC(=O)[C@H](CCCNC(=N)N)NC(=O)[C@H](CO)NC(=O)[C@H](CSSC[C@H](NC(=O)[C@H](CCCCN)NC(=O)[C@H](CCCNC(=N)N)NC1=O)C(=O)N[C@@H](C)C(=O)N1CCC[C@H]1C(=O)N[C@@H](CC(=O)O)C(=O)N[C@@H](CC(N)=O)C(=O)N[C@@H](CC(=O)O)C(=O)N[C@@H](CCCCN)C(=O)N3)NC(=O)[C@H](C(C)C)NC(=O)[C@H](CC(C)C)NC(=O)[C@H](CC(N)=O)NC(=O)[C@@H]1CCCN1C(=O)[C@H](CCCNC(=N)N)NC2=O` [compound 45] (H-DCLGFMRKCAPDNDKCCRPNLVCSRTHKWCKYVF-NH2; disulfide 2-17, 9-23, 16-30): under setting [1], the IC50 amounted to 210 nM.
Still for that read-out and setting: next, `CC[C@H](C)[C@@H]1NC(=O)[C@@H]2CSSC[C@@H]3NC(=O)[C@H](C(C)C)NC(=O)[C@H](CC(C)C)NC(=O)[C@H](CC(N)=O)NC(=O)[C@@H]4CCCN4C(=O)[C@H](CCCNC(=N)N)NC(=O)[C@H](CSSC[C@H](NC(=O)[C@@H](N)CC(=O)O)C(=O)N[C@@H](CC(C)C)C(=O)NCC(=O)N[C@@H](Cc4ccccc4)C(=O)N[C@@H](CCSC)C(=O)N[C@@H](CCCNC(=N)N)C(=O)N[C@@H](CCCCN)C(=O)N2)NC(=O)[C@H](CSSC[C@@H](C(=O)N[C@@H](CCCCN)C(=O)N[C@@H](Cc2ccc(O)cc2)C(=O)N[C@H](C(=O)N[C@@H](Cc2ccccc2)C(N)=O)C(C)C)NC(=O)[C@H](Cc2c[nH]c4ccccc24)NC(=O)[C@H](CCCCN)NC(=O)[C@H](Cc2c[nH]cn2)NC(=O)[C@H]([C@@H](C)O)NC(=O)[C@H](CCCCN)NC(=O)[C@H](CO)NC3=O)NC(=O)[C@H](CCCCN)NC(=O)[C@H](CC(=O)O)NC(=O)[C@H](CC(N)=O)NC(=O)[C@H](CC(=O)O)NC(=O)[C@@H]2CCCN2C1=O` [compound 53] (H-DCLGFMRKCIPDNDKCCRPNLVCSKTHKWCKYVF-NH2; disulfide 2-17, 9-23, 16-30): 380 nM.
For `CC[C@H](C)[C@@H]1NC(=O)[C@@H]2CSSC[C@@H]3NC(=O)[C@H](C(C)C)NC(=O)[C@H](CC(C)C)NC(=O)[C@H](CC(N)=O)NC(=O)[C@@H]4CCCN4C(=O)[C@H](CCC(=O)O)NC(=O)[C@H](CSSC[C@H](NC(=O)[C@@H](N)CC(=O)O)C(=O)N[C@@H](CC(C)C)C(=O)NCC(=O)N[C@@H](Cc4ccccc4)C(=O)N[C@@H](CCSC)C(=O)N[C@@H](CCCNC(=N)N)C(=O)N[C@@H](CCCCN)C(=O)N2)NC(=O)[C@H](CSSC[C@@H](C(=O)N[C@@H](CCCCN)C(=O)N[C@@H](Cc2ccc(O)cc2)C(=O)N[C@H](C(=O)N[C@@H](Cc2ccccc2)C(N)=O)C(C)C)NC(=O)[C@H](Cc2c[nH]c4ccccc24)NC(=O)[C@H](CCCCN)NC(=O)[C@H](Cc2c[nH]cn2)NC(=O)[C@H]([C@@H](C)O)NC(=O)[C@H](CCCNC(=N)N)NC(=O)[C@H](CO)NC3=O)NC(=O)[C@H](CCCCN)NC(=O)[C@H](CC(=O)O)NC(=O)[C@H](CC(N)=O)NC(=O)[C@H](CC(=O)O)NC(=O)[C@@H]2CCCN2C1=O` [compound 148] (H-DCLGFMRKCIPDNDKCCEPNLVCSRTHKWCKYVF-NH2; disulfide 2-17, 9-23, 16-30), the IC50 (read-out: IWQ Use Nav1.7) turned out to be 220 nM.
On to `CC[C@H](C)[C@@H]1NC(=O)[C@@H]2CSSC[C@@H]3NC(=O)[C@H](C(C)C)NC(=O)[C@H](CC(C)C)NC(=O)[C@H](CC(N)=O)NC(=O)[C@@H]4CCCN4C(=O)[C@H](CCCNC(=N)N)NC(=O)[C@H](CSSC[C@H](NC(=O)[C@@H](N)CC(=O)O)C(=O)N[C@@H](CC(C)C)C(=O)NCC(=O)N[C@@H](Cc4ccccc4)C(=O)N[C@@H](CCSC)C(=O)N[C@@H](CCCNC(=N)N)C(=O)N[C@@H](CCCCN)C(=O)N2)NC(=O)[C@H](CSSC[C@@H](C(=O)N[C@@H](CCCCN)C(=O)N[C@@H](Cc2ccc(O)cc2)C(N)=O)NC(=O)[C@H](Cc2c[nH]c4ccccc24)NC(=O)[C@H](CCCCN)NC(=O)[C@H](Cc2c[nH]cn2)NC(=O)[C@H]([C@@H](C)O)NC(=O)[C@H](CCCNC(=N)N)NC(=O)[C@H](CO)NC3=O)NC(=O)[C@H](CCCCN)NC(=O)[C@H](CC(=O)O)NC(=O)[C@H](CC(N)=O)NC(=O)[C@H](CC(=O)O)NC(=O)[C@@H]2CCCN2C1=O` [compound 416] (H-DCLGFMRKCIPDNDKCCRPNLVCSRTHKWCKY-NH2; disulfide 2-17, 9-23, 16-30), for which the IC50 (IonWorks Quattro, use-dependent, […], read-out: IWQ Use Nav1.7 (μm)) is 1500 nM.
